Laboratory results taken from ChEMBL document CHEMBL5291721, “A preclinical secondary pharmacology resource illuminates target-adverse drug reaction associations of marketed drugs” (Nat Commun, 2023).

What was measured:
[1] = target: Sodium-dependent noradrenaline transporter (Homo sapiens, UniProt P23975)
[2] = target: Neuronal acetylcholine receptor subunit alpha-4 (Homo sapiens, UniProt P43681)
[3] = target: Growth hormone secretagogue receptor type 1 (Homo sapiens, UniProt Q92847)
Adenosine receptor A3 = target: T1, Adenosine receptor A3 (Homo sapiens, UniProt P0DMS8)
T1 sequence (P0DMS8 whole entry): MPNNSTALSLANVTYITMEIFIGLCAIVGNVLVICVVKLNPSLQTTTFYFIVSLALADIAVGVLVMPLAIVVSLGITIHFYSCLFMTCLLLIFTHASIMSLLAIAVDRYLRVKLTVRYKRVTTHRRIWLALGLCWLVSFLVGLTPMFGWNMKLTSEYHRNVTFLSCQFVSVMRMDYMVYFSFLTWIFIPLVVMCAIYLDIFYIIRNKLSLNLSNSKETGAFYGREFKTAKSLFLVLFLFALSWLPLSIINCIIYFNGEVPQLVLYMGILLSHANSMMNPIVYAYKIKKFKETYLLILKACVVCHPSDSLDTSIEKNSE

D(3) dopamine receptor = D(3) dopamine receptor (Homo sapiens, UniProt P35462)
Adenosine receptor A2a = Adenosine receptor A2a (Homo sapiens, UniProt P29274)
[4] = target: T2, 5-hydroxytryptamine receptor 1A (Homo sapiens, UniProt P08908); assay type: functional, cell-based
T2 sequence (P08908 whole entry): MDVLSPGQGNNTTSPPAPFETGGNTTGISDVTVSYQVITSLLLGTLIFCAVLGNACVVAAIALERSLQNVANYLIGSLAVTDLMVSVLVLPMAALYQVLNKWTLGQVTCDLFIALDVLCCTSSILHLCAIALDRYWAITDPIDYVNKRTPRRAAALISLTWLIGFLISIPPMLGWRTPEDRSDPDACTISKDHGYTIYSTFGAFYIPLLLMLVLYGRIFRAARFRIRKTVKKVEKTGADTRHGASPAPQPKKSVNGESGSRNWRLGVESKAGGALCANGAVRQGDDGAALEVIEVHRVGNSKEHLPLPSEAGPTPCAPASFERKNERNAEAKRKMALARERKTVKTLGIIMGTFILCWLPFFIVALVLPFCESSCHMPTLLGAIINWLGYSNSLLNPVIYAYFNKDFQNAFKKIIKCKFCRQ

[5] = target: T3, 5-hydroxytryptamine receptor 3A (Homo sapiens, UniProt P46098); assay type: functional
T3 sequence (P46098 whole entry): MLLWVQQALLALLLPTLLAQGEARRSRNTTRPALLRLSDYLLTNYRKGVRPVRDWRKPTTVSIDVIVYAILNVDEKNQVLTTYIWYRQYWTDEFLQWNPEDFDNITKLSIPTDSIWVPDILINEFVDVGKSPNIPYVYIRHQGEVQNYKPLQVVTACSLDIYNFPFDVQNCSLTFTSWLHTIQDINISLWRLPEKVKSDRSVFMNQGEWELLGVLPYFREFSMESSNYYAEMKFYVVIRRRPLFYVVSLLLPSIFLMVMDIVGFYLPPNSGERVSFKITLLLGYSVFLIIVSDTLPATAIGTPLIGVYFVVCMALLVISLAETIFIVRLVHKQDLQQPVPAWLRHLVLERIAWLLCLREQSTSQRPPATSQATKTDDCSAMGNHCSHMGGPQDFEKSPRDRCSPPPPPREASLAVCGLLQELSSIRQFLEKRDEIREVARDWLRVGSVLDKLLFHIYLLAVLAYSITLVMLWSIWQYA

[6] = target: 5-hydroxytryptamine receptor 2B (Homo sapiens, UniProt P41595); assay type: functional, cell-based
Bile salt export pump = Bile salt export pump (Homo sapiens, UniProt O95342); assay type: functional
[7] = target: T4, Alpha-2A adrenergic receptor (Homo sapiens, UniProt P08913); assay type: functional, cell-based
T4 sequence (P08913 whole entry): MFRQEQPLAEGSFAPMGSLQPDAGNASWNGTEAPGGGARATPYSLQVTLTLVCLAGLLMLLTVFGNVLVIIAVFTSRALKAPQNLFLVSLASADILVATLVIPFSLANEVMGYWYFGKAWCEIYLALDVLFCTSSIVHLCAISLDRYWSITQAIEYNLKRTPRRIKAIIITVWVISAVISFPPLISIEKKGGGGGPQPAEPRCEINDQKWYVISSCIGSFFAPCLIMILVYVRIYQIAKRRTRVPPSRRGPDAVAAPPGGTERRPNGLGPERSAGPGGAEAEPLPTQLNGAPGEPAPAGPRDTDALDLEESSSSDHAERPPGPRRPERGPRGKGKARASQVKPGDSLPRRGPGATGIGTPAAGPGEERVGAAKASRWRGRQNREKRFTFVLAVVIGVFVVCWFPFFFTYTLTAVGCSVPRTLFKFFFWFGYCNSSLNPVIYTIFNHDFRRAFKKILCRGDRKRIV

[8] = target: T5, Type-1 angiotensin II receptor (Homo sapiens, UniProt P30556)
T5 sequence (P30556 whole entry): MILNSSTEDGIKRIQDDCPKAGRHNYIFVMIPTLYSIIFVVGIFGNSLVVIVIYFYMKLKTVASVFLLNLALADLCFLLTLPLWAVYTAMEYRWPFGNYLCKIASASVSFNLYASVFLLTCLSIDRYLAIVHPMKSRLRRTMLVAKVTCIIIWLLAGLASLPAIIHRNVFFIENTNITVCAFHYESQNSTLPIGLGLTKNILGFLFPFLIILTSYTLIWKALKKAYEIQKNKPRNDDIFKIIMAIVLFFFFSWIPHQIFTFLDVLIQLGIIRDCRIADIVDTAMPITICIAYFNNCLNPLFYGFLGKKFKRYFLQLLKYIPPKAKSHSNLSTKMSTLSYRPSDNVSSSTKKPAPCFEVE

Motilin receptor = Motilin receptor (Homo sapiens, UniProt O43193)
Melanocortin receptor 3 = Melanocortin receptor 3 (Homo sapiens, UniProt P41968)
Further: assay procedure not described here.

Chain of Sodium-dependent noradrenaline transporter (P23975 whole entry): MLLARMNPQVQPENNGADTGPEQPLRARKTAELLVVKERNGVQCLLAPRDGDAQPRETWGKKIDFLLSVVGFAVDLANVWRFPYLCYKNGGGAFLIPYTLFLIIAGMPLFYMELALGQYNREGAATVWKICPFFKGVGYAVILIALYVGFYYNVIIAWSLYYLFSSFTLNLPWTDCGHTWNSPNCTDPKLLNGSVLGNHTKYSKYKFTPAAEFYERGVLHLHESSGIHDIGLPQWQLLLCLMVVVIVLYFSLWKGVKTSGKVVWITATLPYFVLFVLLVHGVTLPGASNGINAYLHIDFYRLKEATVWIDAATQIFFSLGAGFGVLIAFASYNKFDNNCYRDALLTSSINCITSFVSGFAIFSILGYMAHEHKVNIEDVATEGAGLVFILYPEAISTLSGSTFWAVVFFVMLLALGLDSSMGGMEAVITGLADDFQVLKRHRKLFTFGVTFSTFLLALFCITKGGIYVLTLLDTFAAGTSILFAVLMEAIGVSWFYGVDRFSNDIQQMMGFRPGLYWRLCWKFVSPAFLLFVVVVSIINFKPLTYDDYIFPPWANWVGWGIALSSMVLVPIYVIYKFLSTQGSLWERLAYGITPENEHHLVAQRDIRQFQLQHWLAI
Chain of Melanocortin receptor 3 (P41968 whole entry): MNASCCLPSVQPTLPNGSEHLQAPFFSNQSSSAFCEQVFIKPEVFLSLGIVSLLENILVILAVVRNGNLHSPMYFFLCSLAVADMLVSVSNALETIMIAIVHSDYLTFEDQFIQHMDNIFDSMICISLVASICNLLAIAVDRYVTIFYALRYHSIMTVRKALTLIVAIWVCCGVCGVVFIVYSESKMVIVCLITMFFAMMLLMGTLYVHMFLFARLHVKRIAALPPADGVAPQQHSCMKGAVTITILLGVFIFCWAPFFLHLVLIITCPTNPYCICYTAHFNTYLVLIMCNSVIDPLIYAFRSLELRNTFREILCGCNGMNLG
Chain of Growth hormone secretagogue receptor type 1 (Q92847 whole entry): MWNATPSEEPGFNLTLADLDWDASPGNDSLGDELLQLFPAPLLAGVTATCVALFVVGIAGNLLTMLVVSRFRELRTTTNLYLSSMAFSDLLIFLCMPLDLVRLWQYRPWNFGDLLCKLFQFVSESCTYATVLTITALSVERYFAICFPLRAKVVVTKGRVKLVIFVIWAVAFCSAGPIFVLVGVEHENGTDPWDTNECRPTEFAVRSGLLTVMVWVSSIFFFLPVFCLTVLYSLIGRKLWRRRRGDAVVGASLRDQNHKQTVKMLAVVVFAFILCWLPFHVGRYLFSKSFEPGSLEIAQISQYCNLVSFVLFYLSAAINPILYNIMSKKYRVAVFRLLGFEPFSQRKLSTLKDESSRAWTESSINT
Chain of Bile salt export pump (O95342 whole entry): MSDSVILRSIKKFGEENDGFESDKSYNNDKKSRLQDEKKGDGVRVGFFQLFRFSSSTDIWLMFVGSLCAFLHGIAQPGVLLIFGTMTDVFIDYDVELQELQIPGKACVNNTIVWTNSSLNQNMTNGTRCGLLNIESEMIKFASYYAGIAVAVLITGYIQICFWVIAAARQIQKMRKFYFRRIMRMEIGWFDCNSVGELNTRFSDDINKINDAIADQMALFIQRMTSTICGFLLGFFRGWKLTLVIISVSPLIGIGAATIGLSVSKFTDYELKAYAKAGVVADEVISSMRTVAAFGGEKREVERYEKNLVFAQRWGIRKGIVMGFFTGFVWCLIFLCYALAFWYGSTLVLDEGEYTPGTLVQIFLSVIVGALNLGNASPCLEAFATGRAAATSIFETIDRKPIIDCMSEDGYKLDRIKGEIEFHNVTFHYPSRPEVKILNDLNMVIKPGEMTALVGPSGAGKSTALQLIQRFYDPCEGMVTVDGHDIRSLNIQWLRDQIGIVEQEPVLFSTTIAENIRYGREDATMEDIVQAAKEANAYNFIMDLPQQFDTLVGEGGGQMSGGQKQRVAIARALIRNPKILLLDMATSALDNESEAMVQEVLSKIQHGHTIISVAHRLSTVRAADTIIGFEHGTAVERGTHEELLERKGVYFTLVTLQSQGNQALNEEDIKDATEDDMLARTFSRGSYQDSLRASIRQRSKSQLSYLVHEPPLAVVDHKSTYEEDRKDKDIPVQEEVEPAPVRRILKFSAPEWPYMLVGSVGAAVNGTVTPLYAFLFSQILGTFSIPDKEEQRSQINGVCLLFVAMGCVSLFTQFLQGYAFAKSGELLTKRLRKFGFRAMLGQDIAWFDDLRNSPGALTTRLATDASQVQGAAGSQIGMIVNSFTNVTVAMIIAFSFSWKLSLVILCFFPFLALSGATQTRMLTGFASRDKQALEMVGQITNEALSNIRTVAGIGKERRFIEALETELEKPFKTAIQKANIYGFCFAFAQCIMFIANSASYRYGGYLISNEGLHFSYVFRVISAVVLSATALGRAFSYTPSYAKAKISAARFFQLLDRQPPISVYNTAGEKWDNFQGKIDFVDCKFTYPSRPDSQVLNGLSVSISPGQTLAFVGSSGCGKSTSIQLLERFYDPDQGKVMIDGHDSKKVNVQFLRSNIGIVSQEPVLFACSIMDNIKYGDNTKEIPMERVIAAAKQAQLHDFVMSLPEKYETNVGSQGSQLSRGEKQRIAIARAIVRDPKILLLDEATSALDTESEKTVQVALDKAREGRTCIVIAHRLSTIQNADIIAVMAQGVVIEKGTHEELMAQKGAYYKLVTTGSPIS
Chain of 5-hydroxytryptamine receptor 2B (P41595 whole entry): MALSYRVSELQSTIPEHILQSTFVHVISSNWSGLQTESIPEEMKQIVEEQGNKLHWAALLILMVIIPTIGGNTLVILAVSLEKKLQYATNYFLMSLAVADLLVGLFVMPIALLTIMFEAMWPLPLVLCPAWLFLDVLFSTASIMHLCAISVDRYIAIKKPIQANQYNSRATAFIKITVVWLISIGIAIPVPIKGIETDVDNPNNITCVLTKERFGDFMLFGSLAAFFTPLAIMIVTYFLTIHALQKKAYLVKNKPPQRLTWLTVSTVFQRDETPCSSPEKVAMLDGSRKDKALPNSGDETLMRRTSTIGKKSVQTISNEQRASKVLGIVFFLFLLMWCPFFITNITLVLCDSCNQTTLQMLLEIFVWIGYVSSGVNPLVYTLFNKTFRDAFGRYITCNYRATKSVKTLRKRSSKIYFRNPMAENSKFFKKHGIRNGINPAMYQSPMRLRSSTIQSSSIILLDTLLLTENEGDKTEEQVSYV
Chain of Motilin receptor (O43193 whole entry): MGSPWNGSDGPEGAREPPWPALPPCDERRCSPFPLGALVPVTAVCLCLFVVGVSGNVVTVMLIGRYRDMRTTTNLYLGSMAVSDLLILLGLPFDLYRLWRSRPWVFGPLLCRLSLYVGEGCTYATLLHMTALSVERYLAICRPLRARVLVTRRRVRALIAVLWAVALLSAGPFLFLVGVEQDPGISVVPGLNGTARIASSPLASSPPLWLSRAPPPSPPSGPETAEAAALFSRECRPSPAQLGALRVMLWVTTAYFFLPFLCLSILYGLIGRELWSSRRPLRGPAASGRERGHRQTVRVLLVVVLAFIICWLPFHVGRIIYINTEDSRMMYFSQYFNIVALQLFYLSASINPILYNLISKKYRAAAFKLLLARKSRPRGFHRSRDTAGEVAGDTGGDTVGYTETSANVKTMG
Chain of Adenosine receptor A2a (P29274 whole entry): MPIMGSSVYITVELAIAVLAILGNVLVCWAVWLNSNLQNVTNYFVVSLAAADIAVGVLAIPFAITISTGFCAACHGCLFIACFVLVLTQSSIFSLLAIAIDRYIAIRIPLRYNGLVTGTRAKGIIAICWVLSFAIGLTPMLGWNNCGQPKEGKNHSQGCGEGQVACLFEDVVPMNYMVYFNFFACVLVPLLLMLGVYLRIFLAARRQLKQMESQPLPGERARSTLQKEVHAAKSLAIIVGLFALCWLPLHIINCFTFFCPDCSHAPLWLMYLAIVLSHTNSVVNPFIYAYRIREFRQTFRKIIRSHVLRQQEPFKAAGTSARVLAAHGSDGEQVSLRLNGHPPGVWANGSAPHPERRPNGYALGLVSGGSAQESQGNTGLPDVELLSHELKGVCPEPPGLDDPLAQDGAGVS
Chain of D(3) dopamine receptor (P35462 whole entry): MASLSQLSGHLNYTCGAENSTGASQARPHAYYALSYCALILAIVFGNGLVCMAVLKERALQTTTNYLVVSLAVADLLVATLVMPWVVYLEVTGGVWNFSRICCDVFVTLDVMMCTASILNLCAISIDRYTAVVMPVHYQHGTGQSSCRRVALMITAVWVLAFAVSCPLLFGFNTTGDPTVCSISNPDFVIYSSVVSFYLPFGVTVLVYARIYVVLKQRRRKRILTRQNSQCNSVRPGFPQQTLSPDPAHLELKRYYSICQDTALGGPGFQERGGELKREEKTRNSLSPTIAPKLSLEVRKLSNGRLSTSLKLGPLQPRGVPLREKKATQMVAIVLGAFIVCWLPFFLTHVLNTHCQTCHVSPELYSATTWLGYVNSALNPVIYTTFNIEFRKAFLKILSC
Chain of Neuronal acetylcholine receptor subunit alpha-4 (P43681 whole entry): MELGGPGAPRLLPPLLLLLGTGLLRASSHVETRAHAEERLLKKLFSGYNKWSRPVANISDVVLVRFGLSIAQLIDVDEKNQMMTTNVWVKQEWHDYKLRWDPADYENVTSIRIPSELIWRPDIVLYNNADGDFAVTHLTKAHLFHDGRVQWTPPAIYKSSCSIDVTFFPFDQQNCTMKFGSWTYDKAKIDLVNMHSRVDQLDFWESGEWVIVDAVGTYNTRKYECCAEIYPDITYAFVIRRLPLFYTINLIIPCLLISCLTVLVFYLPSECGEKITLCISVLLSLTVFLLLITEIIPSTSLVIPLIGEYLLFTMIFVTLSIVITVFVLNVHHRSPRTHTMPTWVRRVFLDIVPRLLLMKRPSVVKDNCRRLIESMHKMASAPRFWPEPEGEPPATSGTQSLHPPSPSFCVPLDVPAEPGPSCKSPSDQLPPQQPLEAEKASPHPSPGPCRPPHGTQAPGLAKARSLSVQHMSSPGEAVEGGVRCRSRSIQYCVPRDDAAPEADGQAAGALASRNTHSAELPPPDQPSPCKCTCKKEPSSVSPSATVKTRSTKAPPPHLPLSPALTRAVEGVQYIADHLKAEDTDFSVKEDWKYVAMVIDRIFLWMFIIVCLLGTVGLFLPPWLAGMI

Row | AC50 [1] | AC50 [2] | AC50 [3] | AC50 (Adenosine receptor A3) | AC50 (D(3) dopamine receptor) | AC50 (Adenosine receptor A2a) | AC50 [4] | AC50 [5] | AC50 [6] | AC50 (Bile salt export pump) | AC50 [7] | AC50 [8] | AC50 (Motilin receptor) | AC50 (Melanocortin receptor 3) | SMILES
1 | > 10 µM | > 10 µM | > 30 µM | > 30 µM | 0.29 µM | > 30 µM | > 10 µM | > 30 µM | 2.2 µM | 270 µM | > 10 µM | > 30 µM | > 10 µM | > 30 µM | OCCOCCN1CCN(C(c2ccccc2)c2ccc(Cl)cc2)CC1 (stereo unspecified) [HYDROXYZINE]
2 | > 10 µM | > 10 µM | > 10 µM | > 10 µM | > 30 µM | > 10 µM | > 30 µM | > 30 µM | > 30 µM | > 300 µM | > 30 µM | > 10 µM | > 10 µM | > 10 µM | O=C(c1ccccc1)c1ccc2n1CCC2C(=O)O (stereo unspecified) [KETOROLAC]
3 | > 10 µM | > 10 µM | > 30 µM | > 30 µM | > 10 µM | > 30 µM | > 10 µM | > 30 µM | > 10 µM | > 300 µM | > 10 µM | > 30 µM | > 10 µM | > 30 µM | Nc1nnc(-c2cccc(Cl)c2Cl)c(N)n1 [LAMOTRIGINE]
4 | > 30 µM | > 30 µM | > 30 µM | 11 µM | > 30 µM | > 30 µM | > 30 µM | > 30 µM | > 30 µM | > 300 µM | > 30 µM | > 30 µM | > 30 µM | > 30 µM | N[C@@H](Cc1cc(I)c(Oc2cc(I)c(O)c(I)c2)c(I)c1)C(=O)O [LEVOTHYROXINE]
5 | > 10 µM | > 10 µM | > 10 µM | > 10 µM | > 30 µM | > 10 µM | > 10 µM | > 30 µM | > 10 µM | > 300 µM | > 10 µM | > 10 µM | > 10 µM | > 10 µM | CNC1(C)C2CCC(C2)C1(C)C (stereo unspecified) [MECAMYLAMINE]
6 | > 10 µM | > 10 µM | > 10 µM | > 10 µM | > 30 µM | > 10 µM | > 10 µM | > 30 µM | > 10 µM | > 300 µM | > 10 µM | > 30 µM | > 10 µM | > 10 µM | CCC1(c2ccccc2)C(=O)NCNC1=O [PRIMIDONE]
7 | > 10 µM | > 30 µM | > 30 µM | > 30 µM | > 30 µM | > 30 µM | > 30 µM | > 30 µM | > 30 µM | 21 µM | > 30 µM | > 30 µM | > 30 µM | > 30 µM | CC(=O)SCC(Cc1ccccc1)C(=O)NCC(=O)OCc1ccccc1 (stereo unspecified) [RACECADOTRIL]
8 | > 30 µM | > 10 µM | > 30 µM | > 30 µM | 0.0032 µM | > 30 µM | > 10 µM | > 30 µM | 6.4 µM | > 300 µM | > 30 µM | > 30 µM | > 10 µM | > 30 µM | CCOc1ccccc1OCCN[C@H](C)Cc1ccc(OC)c(S(N)(=O)=O)c1 [TAMSULOSIN]
9 | > 30 µM | > 30 µM | > 30 µM | > 30 µM | > 30 µM | > 30 µM | > 30 µM | > 30 µM | > 30 µM | > 300 µM | > 30 µM | > 30 µM | > 30 µM | > 30 µM | C[C@H](Cn1cnc2c(N)ncnc21)OCP(=O)(O)O [TENOFOVIR ANHYDROUS]
10 | > 30 µM | > 30 µM | > 30 µM | > 30 µM | > 30 µM | > 30 µM | 18 µM | > 30 µM | 8.6 µM | 74 µM | > 30 µM | > 30 µM | > 30 µM | > 30 µM | COc1cc2c(cc1OC)C1CC(=O)C(CC(C)C)CN1CC2 (stereo unspecified) [TETRABENAZINE]
11 | > 30 µM | > 30 µM | > 30 µM | > 30 µM | > 30 µM | > 30 µM | > 30 µM | > 30 µM | > 10 µM | > 10 µM | > 30 µM | > 30 µM | > 30 µM | > 30 µM | CC(C)(CO)c1cc2cc(NC(=O)C3(c4ccc5c(c4)OC(F)(F)O5)CC3)c(F)cc2n1C[C@@H](O)CO [TEZACAFTOR]

Row | SMILES | AC50 [1] | AC50 [2] | AC50 [3] | AC50 (Adenosine receptor A3) | AC50 (D(3) dopamine receptor) | AC50 (Adenosine receptor A2a) | AC50 [4] | AC50 [5] | AC50 [6] | AC50 (Bile salt export pump) | AC50 [7] | AC50 [8] | AC50 (Motilin receptor) | AC50 (Melanocortin receptor 3)
12 | C[C@@H](O)[C@H]1C(=O)N2C(C(=O)O)=C(SCCN=CN)C[C@H]12 [IMIPENEM ANHYDROUS] | > 300 µM | > 300 µM | > 300 µM | 180 µM | > 300 µM | > 300 µM | > 300 µM | > 300 µM | > 300 µM | > 300 µM | > 300 µM | > 300 µM | > 300 µM | > 300 µM
13 | CO[C@@H]1[C@@H](OC(N)=O)[C@@H](O)[C@H](Oc2ccc3c(O)c(NC(=O)c4ccc(O)c(CC=C(C)C)c4)c(=O)oc3c2C)OC1(C)C [NOVOBIOCIN] | > 30 µM | > 30 µM | > 30 µM | > 30 µM | > 30 µM | > 30 µM | > 30 µM | > 30 µM | > 30 µM | 220 µM | > 30 µM | > 30 µM | > 30 µM | > 30 µM
14 | Cc1c(C)c2c(c(C)c1O)CCC(C)(COc1ccc(CC3SC(=O)NC3=O)cc1)O2 (stereo unspecified) [TROGLITAZONE] | 15 µM | > 30 µM | > 30 µM | 8.48 µM | > 30 µM | > 30 µM | > 30 µM | > 30 µM | 2 µM | 5.01 µM | > 30 µM | 15.5 µM | > 30 µM | > 30 µM
